Test results taken from patent publication US5563125A, “5'-deoxy-5'-(substituted)alkylthioribose compounds and their pharmaceutical compositions” (priority 1992, dated 1996).

Key:
[1] = system: Plasmodium falciparum (Strain FCR-3: ATCC #30932); assay: Antimalarial activity in vitro, 3H-hypoxanthine incorporation; format: cell-based; conditions: strain FCR-3, in vitro
Procedure: P. falciparum was cultured by the method of Trager and Jensen (1976). The FCR-3 strain was used for all experiments. For enzyme measurements, parasites were isolated from infected red cells by saponin lysis and stored at -70° C.
To determine drug effects, ^3 H-hypoxanthine incorporation was measured in the following manner. Infected red cells and varying concentrations of drugs were aliquoted in triplicate wells of a 96-well microtiter plate (Corning). Each well contained a total volume of 200 μl with a final hematocrit of 5 percent and parasitemia of 0.5-1%. The microtiter plates were incubated at 37° C. in candle jars. ^3 H-hypoxanthine (0.5 μCi) was added to each well after 24 hours. After an additional 24 hours of incubation, the parasites were harvested using a PHD cell harvester (Cambridge Technologies). Filters were immersed in Aquasol (New England Nuclear) and counted using a LKB rack beta scintillation counter.
*Concentration which inhibits growth by 50% when compared to untreated,
control cultures, and under defined assay conditions.

[2] = system: T. b. brucei procyclic trypanosomes (Lab 110 EATRO strain); assay: In vitro antitrypanosomal activity, procyclic trypanosomes in T2 medium; format: cell-based, Trypanosoma brucei brucei; conditions: Trypanosoma brucei, 3-5 days
Procedure: The antitrypanosomal effects of HETA and other nucleosides were examined in the Lab 110 EATRO strain of T. b. brucei in culture.
Cells were cultured as described in Bacchi et al. Exp. Parasitol. 68, 392, 1989. Cells were then grown in the presence of the compounds for 3-5 days. Drugs were filtered, sterilized and added aseptically. Control cells achieved a maximum density of 1.5-3.5×10^7 /ml. Hemocytometer counts were made daily and the results were expressed as a percent of control growth. IC50 plots were obtained by graphing log (drug) vs. percent growth inhibition.
Trypanocidal Activity of MTA and MTR Analogs
against T. b. brucei procyclic trypanosomes in T2 medium.

P. falciparum = assay: In vitro antimalarial activity of HETA; format: cell-based, Plasmodium falciparum; conditions: P. falciparum in vitro screen
[3] = substrate: CSC[C@H]1O[C@@H](n2cnc3c(N)ncnc32)[C@H](O)[C@@H]1O; assay: Mouse liver MTA phosphorylase substrate/inhibitor assay; format: biochemical; conditions: other: mouse liver MTA phosphorylase
Procedure: ^a MTA phosphorylase activity was assayed as described in Sufrin et

## CCSC[C@H]1OC(O)[C@H](O)[C@@H]1O (stereo partly shown) [ETR, 5-deoxy-5-(ethylthio)ribose, reference compound]
[1]
  IC50: > 1000 µM
[2]
  IC50: > 100 µM

## OCCSC[C@H]1OC(O)[C@H](O)[C@@H]1O (stereo partly shown) [HETR, 5-deoxy-5-(hydroxyethylthio)ribose]
[1]
  IC50: > 1000 µM
[2]
  IC50: > 100 µM
P. falciparum
  growth of the microorganism inhibited in an in vitro screen: not

## OC1O[C@H](CSCCF)[C@@H](O)[C@H]1O (stereo partly shown) [MFETR, 5-deoxy-5-(monofluoroethylthio)ribose]
[1]
  IC50: 700 µM

B1: Mouse Liver MTA Phosphorylase (Mus musculus) (protein)
chain: MASGSACTAVKIGIIGGTGLDDPEILEGRTEKYVDTPFGKPSDALILGKIKNVDCVLLARHGRQHTIMPSKVNYQANIWALKEEGCTHVIVTTACGSLREEIQPGDMVIIDQFIDRTSLRPQTFYDGSHCSARGVCHIPMAEPFCPKTREVLIETAKKLGLRCHSKGTIVTIEGPRFSSRAESLIFRTWGADVVNMTTVPEVVLAKEAGICYASIAMATDYDCWKEHEEAVSVDGVLKTMKENANKAKSLLLTTIPQIGSMEWSETLRNLKNMAQFSVLPPRH
notes: of Mouse Liver MTA Phosphorylase; from tissue; host or cells: mouse liver
[3]
  Km: 1.3 µM
